Each structure is given as a SMILES string.

This experiment concerns the target T1, human recombinant PDE4 (Homo sapiens, UniProt Q07343).
T1 construct: made in house; host or cells: Saccharomyces cerevisiae BJ2-54 (strain YI23 harboring HDUN2.32, if PDE4B)
Nature of the experiment: Inhibition of human recombinant PDE4 (IC50). It is filed as biochemical.

T1 sequence (Q07343 1-564 isoform Q07343-2): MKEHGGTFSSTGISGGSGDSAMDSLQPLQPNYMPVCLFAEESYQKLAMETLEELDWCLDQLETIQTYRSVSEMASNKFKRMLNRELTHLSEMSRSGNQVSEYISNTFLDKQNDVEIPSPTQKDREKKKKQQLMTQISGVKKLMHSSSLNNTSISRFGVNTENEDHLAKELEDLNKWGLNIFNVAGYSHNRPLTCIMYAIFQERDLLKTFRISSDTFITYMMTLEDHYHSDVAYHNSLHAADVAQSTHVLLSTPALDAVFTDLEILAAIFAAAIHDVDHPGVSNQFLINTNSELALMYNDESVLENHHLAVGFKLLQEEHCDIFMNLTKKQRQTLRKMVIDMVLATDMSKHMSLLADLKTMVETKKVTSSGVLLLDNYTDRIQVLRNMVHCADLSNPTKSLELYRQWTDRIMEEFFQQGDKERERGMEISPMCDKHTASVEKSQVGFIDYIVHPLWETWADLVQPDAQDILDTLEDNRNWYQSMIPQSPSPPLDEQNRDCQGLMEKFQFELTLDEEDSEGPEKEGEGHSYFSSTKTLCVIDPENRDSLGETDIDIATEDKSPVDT

As to `CCOC(=O)c1cc(C)n(-c2cccc(Br)c2)c1-c1ccccc1` [Example 6, 1-(3-Bromophenyl)-5-methyl-2-phenyl-1H-pyrrole-3-carboxylic acid ethyl ester], the IC50 came to 8.55 µM.

Regarding `CCOC(=O)c1cc(C)n(-c2cccc(C)c2)c1-c1ccccc1` [Example 4, 5-Methyl-2-phenyl-1-m-tolyl-1H-pyrrole-3-carboxylic acid ethyl ester], the IC50 was 2.9 µM.

`CCOC(=O)c1cc(C)n(-c2ccc([N+](=O)[O-])cn2)c1-c1ccccc1` [Example 23, 5-Methyl-1-(5-nitropyridin-2-yl)-2-phenyl-1H-pyrrole-3-carboxylic acid ethyl ester]: the IC50 is 133 µM.

For `CCOC(=O)c1cc(-c2ccccc2)n(C2CCCCC2)c1C` [Example 20, 1-Cyclohexyl-2-methyl-5-phenyl-1H-pyrrole-3-carboxylic acid ethyl ester], the IC50 is 0.99 µM.

As to `CCOC(=O)c1cc(-c2ccccc2)n(-c2cccc(C(C)=O)c2)c1C` [Example 8, 1-(3-Acetylphenyl)-2-methyl-5-phenyl-1H-pyrrole-3-carboxylic acid ethyl ester], the IC50 turned out to be 0.59 µM.

For `CCOC(=O)c1cc(C)n(-c2cccc(C(=O)O)c2)c1-c1ccccc1` [Example 24, 1-(3-Carboxyphenyl)-5-methyl-2-phenyl-1H-pyrrole-3-carboxylic acid ethyl ester], the IC50 was 16.5 µM.

In the case of `CCOC(=O)c1cc(C)n(-c2cccc(N(C)C)c2)c1-c1ccccc1` [Example 13, 1-(3-Dimethylaminophenyl)-5-methyl-2-phenyl-1H-pyrrole-3-carboxylic acid ethyl ester], the IC50 was determined as 0.15 µM.

For `CCOC(=O)c1cc(-c2ccccc2)n(-c2cccc(Br)c2)c1C` [Example 26, 1-(3-Bromophenyl)-2-methyl-5-phenyl-1H-pyrrole-3-carboxylic acid ethyl ester], the IC50 turned out to be 3.07 µM.

On to `CCOC(=O)c1cc(-c2ccccc2)n(-c2cccc(F)c2)c1C` [Example 18, 1-(3-Fluorophenyl)-2-methyl-5-phenyl-1H-pyrrole-3-carboxylic acid ethyl ester], for which the IC50 turned out to be 0.62 µM.

Turning to `CCOC(=O)c1cc(C)n(-c2cccc([N+](=O)[O-])c2)c1-c1ccccc1` [Example 39, 1-(3-Nitrophenyl)-5-methyl-2-phenyl-1H-pyrrole-3-carboxylic acid ethyl ester], the IC50 turned out to be 0.2 µM.

With `CCOC(=O)c1cccc(-n2c(C)cc(C(=O)OCC)c2-c2ccccc2)c1` [Example 46, 1-(3-Ethoxycarbonylphenyl)-5-methyl-2-phenyl-1H-pyrrole-3-carboxylic acid ethyl ester], the IC50 was found to be 8.7 µM.

For `CCOC(=O)c1cc(-c2ccccc2)n(-c2cccc(N)c2)c1C` [Example 41, 1-(3-Aminophenyl)-2-methyl-5-phenyl-1H-pyrrole-3-carboxylic acid ethyl ester], the IC50 came out at 1.42 µM.

Consider `CCOC(=O)c1cc(C)n(-c2ccc(N)cc2)c1-c1ccccc1` [Example 37, 1-(4-Aminophenyl)-5-methyl-2-phenyl-1H-pyrrole-3-carboxylic acid ethyl ester], for which the IC50 was found to be 16 µM.

In the case of `CCOC(=O)c1cc(-c2ccccc2)n(-c2cccc(C(F)(F)F)c2)c1C` [Example 28, 2-Methyl-5-phenyl-1-(3-trifluoro-methylphenyl)-1H-pyrrole-3-carboxylic acid ethyl ester], the IC50 was 2.28 µM.

As for `CCOC(=O)c1cc(-c2ccccc2)n(-c2cccc(C)c2)c1C` [Example 5, 2-Methyl-5-phenyl-l-m-tolyl-1H-pyrrole-3-carboxylic acid ethyl ester], the IC50 amounted to 6.1 µM.

As for `CCOC(=O)c1cc(C)n(-c2cc(C(F)(F)F)cc(C(F)(F)F)c2)c1-c1ccccc1` [Example 45, 1-(3,5-Bis-trifluoromethylphenyl)-5-methyl-2-phenyl-1H-pyrrole-3-carboxylic acid ethyl ester], the IC50 turned out to be 194 µM.

On to `CCOC(=O)c1cc(C)n(-c2cccc(C(N)=O)c2)c1-c1ccccc1` [Example 12, 1-(3-Carbamoylphenyl)-5-methyl-2-phenyl-1H-pyrrole-3-carboxylic acid ethyl ester], for which the IC50 amounted to 0.22 µM.

For the compound `CCOC(=O)c1cc(-c2ccccc2)n(-c2ccc(N)cc2)c1C` [Example 38, 1-(4-Aminophenyl)-2-methyl-5-phenyl-1H-pyrrole-3-carboxylic acid ethyl ester], the IC50 came to 1.3 µM.

For the compound `CCOC(=O)c1cc(C)n(-c2cccc(Cl)c2)c1-c1ccccc1` [Example 2, 1-(3-Chlorophenyl)-5-methyl-2-phenyl-1H-pyrrole-3-carboxylic acid ethyl ester], the IC50 worked out at 5.45 µM.

`CCOC(=O)c1cc(-c2ccccc2)n(-c2cccc(N(C)C)c2)c1C` [Example 1, 1-(3-Dimethylaminophenyl)-2-methyl-5-phenyl-1H-pyrrole-3-carboxylic acid ethyl ester]: the IC50 was determined as 8.22 µM.

Turning to `CCOC(=O)c1cc(-c2ccccc2)n(Cc2cccc([N+](=O)[O-])c2)c1C` [Example 30, 2-Methyl-1-(3-nitrobenzyl)-5-phenyl-1H-pyrrole-3-carboxylic acid ethyl ester], the IC50 was found to be 13.4 µM.

Take `CCOC(=O)c1cc(-c2ccccc2)n(-c2cccc(S(C)(=O)=O)c2)c1C` [Example 10, 1-(3-Methanesulfonylphenyl)-2-methyl-5-phenyl-1H-pyrrole-3-carboxylic acid ethyl ester]: the IC50 stood at 4.38 µM.

Turning to `CCOC(=O)c1cc(-c2ccccc2)n(-c2cccc(C(N)=O)c2)c1C` [Example 11, 1-(3-Carbamoylphenyl)-2-methyl-5-phenyl-1H-pyrrole-3-carboxylic acid ethyl ester], the IC50 was found to be 5.45 µM.

Take `CCOC(=O)c1cc(-c2ccccc2)n(-c2ccc([N+](=O)[O-])cn2)c1C` [Example 35, 2-Methyl-1-(5-nitropyridin-2-yl)-5-phenyl-1H-pyrrole-3-carboxylic acid ethyl ester]: the IC50 came to 5.74 µM.

With `CCOC(=O)c1cc(-c2ccccc2)n(-c2cccnc2)c1C` [Example 19, 2-Methyl-5-phenyl-1-pyridin-3-yl-1H-pyrrole-3-carboxylic acid ethyl ester], the IC50 stood at 1.28 µM.

Regarding `CCOC(=O)c1cc(C)n(-c2cccnc2)c1-c1ccccc1` [Example 32, 5-Methyl-2-phenyl-1-pyridin-3-yl-1H-pyrrole-3-carboxylic acid ethyl ester], the IC50 came out at 13.4 µM.

Turning to `CCOC(=O)c1cc(C)n(Cc2cccc([N+](=O)[O-])c2)c1-c1ccccc1` [Example 31, 5-Methyl-1-(3-nitrobenzyl)-2-phenyl-1H-pyrrole-3-carboxylic acid ethyl ester], the IC50 is 5.13 µM.

On to `Cc1cc(C(=O)O)c(-c2ccccc2)n1-c1cccc([N+](=O)[O-])c1` [Example 43, 5-Methyl-1-(3-nitrophenyl)-2-phenyl-1H-pyrrole-3-carboxylic acid], for which the IC50 was found to be 15.6 µM.

For the compound `CCOC(=O)c1cc(C)n(-c2cccc(F)c2)c1-c1ccccc1` [Example 17, 1-(3-Fluorophenyl)-5-methyl-2-phenyl-1H-pyrrole-3-carboxylic acid ethyl ester], the IC50 stood at 13.2 µM.

In the case of `CCOC(=O)c1cc(-c2ccccc2)n(-c2ccc([N+](=O)[O-])cc2)c1C` [Example 33, 2-Methyl-1-(4-nitrophenyl) -5-phenyl-1H-pyrrole-3-carboxylic acid ethyl ester], the IC50 was 1.4 µM.

The values above are taken from patent publication US6372777B1, “Cyclic AMP-specific phosphodiesterase inhibitors” (ICOS Corporation, priority 1999, dated 2002).
